This is an account of results in US11072596B2, “Poly(ADP-ribose) polymerase inhibitor, preparation method and use” (SELECTION BIOSCIENCE LLC, priority 2017, dated 2021).

A value given as a limit tells only on which side of the number the result lay.

In one data set the target is T1, PARP1 (Homo sapiens, UniProt P09874).
T1 construct: purchased BPS 80580
T1 sequence (P09874 whole entry): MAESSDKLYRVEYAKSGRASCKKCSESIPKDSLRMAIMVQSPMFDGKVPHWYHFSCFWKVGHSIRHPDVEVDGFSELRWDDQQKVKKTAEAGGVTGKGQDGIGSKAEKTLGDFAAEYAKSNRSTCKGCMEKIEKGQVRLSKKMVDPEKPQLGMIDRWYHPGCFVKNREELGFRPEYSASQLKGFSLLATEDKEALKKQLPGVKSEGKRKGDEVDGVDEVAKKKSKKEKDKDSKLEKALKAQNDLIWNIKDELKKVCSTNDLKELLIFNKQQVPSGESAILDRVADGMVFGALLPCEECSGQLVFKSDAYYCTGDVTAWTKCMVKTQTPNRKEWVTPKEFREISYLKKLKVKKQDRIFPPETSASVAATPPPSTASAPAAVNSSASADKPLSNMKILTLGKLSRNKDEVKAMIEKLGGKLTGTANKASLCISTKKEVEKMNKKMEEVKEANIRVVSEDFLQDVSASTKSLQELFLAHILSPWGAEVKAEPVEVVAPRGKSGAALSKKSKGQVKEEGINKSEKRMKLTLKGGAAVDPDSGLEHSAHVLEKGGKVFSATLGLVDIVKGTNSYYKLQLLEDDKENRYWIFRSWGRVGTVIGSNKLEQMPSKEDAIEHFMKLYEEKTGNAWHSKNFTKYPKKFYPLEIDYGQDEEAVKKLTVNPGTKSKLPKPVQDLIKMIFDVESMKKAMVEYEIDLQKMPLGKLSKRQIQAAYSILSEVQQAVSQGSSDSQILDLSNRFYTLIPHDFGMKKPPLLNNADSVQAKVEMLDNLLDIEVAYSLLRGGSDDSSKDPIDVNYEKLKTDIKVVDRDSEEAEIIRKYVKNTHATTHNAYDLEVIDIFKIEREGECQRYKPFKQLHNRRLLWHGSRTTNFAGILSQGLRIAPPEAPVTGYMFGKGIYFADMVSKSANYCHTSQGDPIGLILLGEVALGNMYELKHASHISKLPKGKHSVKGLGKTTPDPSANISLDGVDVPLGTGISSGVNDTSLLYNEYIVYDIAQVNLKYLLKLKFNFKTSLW
Put plainly: PARP1 Colorimetric Assay (PARP-1 kinase inhibitory activity). Format: biochemical. The following applies: PARP1 colorimetric assay kit, 1 hour at room temperature; read-out: PARP1 (in vitro enzymatic inhibitory activity, IC50). The procedure:
PARP1 kinase activity was tested by the following method:
PARP1 Colorimetric Assay Kit (BPS, Cat #80580)
1. PARP1 Colorimetric Assay
2) 50 μL of diluted coating solution was added to each well for overnight at 4° C.
4) 200 μL of blocking buffer was added to each well and incubated at room temperature for 90 minutes.
1) A reaction solution was prepared in a ratio of […] 2.5 μL 10×PARP buffer+2.5 μL 10×PARP Assay mixture+5 μL Activated DNA+15 μL deionized water per well, and 25 μL of the reaction solution was added to each well (see Table 1).
4) 100 μL of colorimetric HRP substrate was added to each well and reacted at room temperature for 20 minutes.
5) 100 μL of 2 M H2SO4 was added to each well and OD 450 nm was read on a microplate reader.
Consider `NC(=O)c1cccc2cn(-c3ccc(C4(F)CCCNC4)cc3)nc12` (racemic) [Example 22, 2-(4-(3-Fluoropiperidin-3-yl)phenyl)-2H-indazole-7-carboxamide], for which the IC50 – broadly, the concentration that inhibits the measured activity by half – was below 100 nM. Turning to `CC1(c2ccc(-n3cc4cccc(C(N)=O)c4n3)cc2)CCCNC1` (racemic) [Example 43, 2-(4-(3-Methylpiperidin-3-yl)phenyl)-2H-indazole-7-carboxamide], the IC50 lay in the range of 100 to 500 nM. Same read-out and setting: as for `NC(=O)c1cccc2cn(-c3ccc([C@]4(F)CCCNC4)cc3)nc12` (single isomer, unassigned) [Example 24, (R or S)-2-(4-(3-fluoropiperidin-3-yl)phenyl)-2H-indazole-7-carboxamide], the figure is below 100 nM; as for `C[C@]1(c2ccc(-n3cc4cccc(C(N)=O)c4n3)cc2)CCCNC1` (single isomer, unassigned) [Example 45, (R or S)-2-(4-(3-methylpiperidin-3-yl)phenyl)-2H-indazole-7-carboxamide], 100 to 500 nM; as for `[2H]C1(c2ccc(-n3cc4cc(F)cc(C(N)=O)c4n3)cc2)CCCNC1` (stereo not shown) [Example 4], below 100 nM. Still for that read-out and setting: as for `[2H][C@@]1(c2ccc(-n3cc4cc(F)cc(C(N)=O)c4n3)cc2)CCCNC1` [Example 5], the figure is below 100 nM. Still for that read-out and setting: as for `[2H][C@]1(c2ccc(-n3cc4cc(F)cc(C(N)=O)c4n3)cc2)CCCNC1` [Example 6], the figure is below 100 nM; as for `[2H]C1(c2ccc(-n3cc4cccc(C(N)=O)c4n3)cc2F)CCCNC1` (stereo not shown) [Example 7], below 100 nM. `[2H][C@]1(c2ccc(-n3cc4cccc(C(N)=O)c4n3)cc2F)CCCNC1` [Example 8]: the IC50 was below 100 nM. Still for that read-out and setting: as for `[2H][C@@]1(c2ccc(-n3cc4cccc(C(N)=O)c4n3)cc2F)CCCNC1` [Example 9], the figure is below 100 nM; as for `[2H]C1(c2ccc(-n3nc4c(C(N)=O)cccc4c3F)cc2)CCCNC1` (stereo not shown) [Example 10], 100 to 500 nM; as for `[2H][C@]1(c2ccc(-n3nc4c(C(N)=O)cccc4c3F)cc2)CCCNC1` [Example 11], 100 to 500 nM. Take `[2H][C@@]1(c2ccc(-n3nc4c(C(N)=O)cccc4c3F)cc2)CCCNC1` [Example 12]: the IC50 was in the range of 100 to 500 nM. Still for that read-out and setting: as for `[2H]C1(c2ccc(-n3cc4cccc(C(N)=O)c4n3)c(F)c2)CCCNC1` (stereo not shown) [Example 13], the figure is 100 to 500 nM; as for `[2H][C@]1(c2ccc(-n3cc4cccc(C(N)=O)c4n3)c(F)c2)CCCNC1` [Example 14], 100 to 500 nM; as for `[2H][C@@]1(c2ccc(-n3cc4cccc(C(N)=O)c4n3)c(F)c2)CCCNC1` [Example 15], 100 to 500 nM. Same read-out and setting: as for `[2H]C1(c2ccc(-n3cc4cc(F)cc(C(N)=O)c4n3)cc2F)CCCNC1` (stereo not shown) [Example 16], the figure is below 100 nM. Still for that read-out and setting: as for `[2H][C@@]1(c2ccc(-n3cc4cc(F)cc(C(N)=O)c4n3)cc2F)CCCNC1` [Example 17], the figure is below 100 nM; as for `[2H][C@]1(c2ccc(-n3cc4cc(F)cc(C(N)=O)c4n3)cc2F)CCCNC1` [Example 18], below 100 nM.

As to `[2H]C1(c2ccc(-n3cc4cc(F)cc(C(N)=O)c4n3)c(F)c2)CCCNC1` (stereo not shown) [Example 19], the 50% inhibitory concentration (IC50) was below 100 nM. Still for that read-out and setting: as for `[2H][C@@]1(c2ccc(-n3cc4cc(F)cc(C(N)=O)c4n3)c(F)c2)CCCNC1` [Example 20], the figure is below 100 nM; as for `[2H][C@]1(c2ccc(-n3cc4cc(F)cc(C(N)=O)c4n3)c(F)c2)CCCNC1` [Example 21], below 100 nM. As to `NC(=O)c1cc(F)cc2cn(-c3ccc(C4(F)CCCNC4)cc3)nc12` (stereo not shown) [Example 25], the IC50 is below 100 nM. The same measure, in the same setting: as for `NC(=O)c1cc(F)cc2cn(-c3ccc([C@]4(F)CCCNC4)cc3)nc12` [Example 26], the figure is below 100 nM; as for `NC(=O)c1cc(F)cc2cn(-c3ccc([C@@]4(F)CCCNC4)cc3)nc12` [Example 27], below 100 nM; as for `NC(=O)c1cccc2cn(-c3ccc(C4(F)CCCNC4)c(F)c3)nc12` (stereo not shown) [Example 28], below 100 nM. In the case of `NC(=O)c1cccc2cn(-c3ccc([C@@]4(F)CCCNC4)c(F)c3)nc12` [Example 29], the IC50 is below 100 nM. On the same count and under the same terms, as for `NC(=O)c1cccc2c(F)n(-c3ccc([C@]4(F)CCCNC4)cc3)nc12` [Example 30], the figure is below 100 nM; as for `NC(=O)c1cccc2c(F)n(-c3ccc(C4(F)CCCNC4)cc3)nc12` (stereo not shown) [Example 31], 100 to 500 nM. Still for that read-out and setting: as for `NC(=O)c1cccc2c(F)n(-c3ccc([C@@]4(F)CCCNC4)cc3)nc12` [Example 32], the figure is 100 to 500 nM. `NC(=O)c1cccc2c(F)n(-c3ccc([C@]4(F)CCCNC4)cc3)nc12` [Example 33]: the IC50 fell in the range of 100 to 500 nM. On to `NC(=O)c1cccc2cn(-c3ccc(C4(F)CCCNC4)cc3F)nc12` (stereo not shown) [Example 34], for which the IC50 lay within 100 to 500 nM. Regarding `NC(=O)c1cccc2cn(-c3ccc([C@@]4(F)CCCNC4)cc3F)nc12` [Example 35], the IC50 was 100 to 500 nM. Same read-out and setting: as for `NC(=O)c1cccc2cn(-c3ccc([C@]4(F)CCCNC4)cc3F)nc12` [Example 36], the figure is 100 to 500 nM.

Consider `NC(=O)c1c(F)ccc2cn(-c3ccc(C4(F)CCCNC4)cc3)nc12` (stereo not shown) [Example 37], for which the IC50 was in the range of 100 to 500 nM. On to `NC(=O)c1c(F)ccc2cn(-c3ccc([C@]4(F)CCCNC4)cc3)nc12` [Example 38], for which the IC50 was in the range of 100 to 500 nM. As to `NC(=O)c1c(F)ccc2cn(-c3ccc([C@@]4(F)CCCNC4)cc3)nc12` [Example 39], the IC50 is 100 to 500 nM. On to `NC(=O)c1ccc(F)c2cn(-c3ccc(C4(F)CCCNC4)cc3)nc12` (stereo not shown) [Example 40], for which the IC50 was 100 to 500 nM. On the same count and under the same terms, as for `NC(=O)c1ccc(F)c2cn(-c3ccc([C@]4(F)CCCNC4)cc3)nc12` [Example 41], the figure is 100 to 500 nM; as for `NC(=O)c1ccc(F)c2cn(-c3ccc([C@@]4(F)CCCNC4)cc3)nc12` [Example 42], 100 to 500 nM. For the molecule `C[C@]1(c2ccc(-n3cc4cccc(C(N)=O)c4n3)cc2)CCCNC1` [Example 44, (R or S)-2-(4-(3-methylpiperidin-3-yl)phenyl)-2H-indazole-7-carboxamide], the IC50 was in the range of 100 to 500 nM. Consider `CC1(c2ccc(-n3cc4cc(F)cc(C(N)=O)c4n3)cc2)CCCNC1` (stereo not shown) [Example 46], for which the IC50 lay within 100 to 500 nM.

In the case of `C[C@@]1(c2ccc(-n3cc4cc(F)cc(C(N)=O)c4n3)cc2)CCCNC1` [Example 47], the IC50 was in the range of 100 to 500 nM.

Turning to `C[C@]1(c2ccc(-n3cc4cc(F)cc(C(N)=O)c4n3)cc2)CCCNC1` [Example 48], the IC50 was in the range of 100 to 500 nM. Same read-out and setting: as for `CC1(c2ccc(-n3cc4cccc(C(N)=O)c4n3)cc2F)CCCNC1` (stereo not shown) [Example 49], the figure is 100 to 500 nM; as for `C[C@]1(c2ccc(-n3cc4cccc(C(N)=O)c4n3)cc2F)CCCNC1` [Example 50], 100 to 500 nM; as for `C[C@@]1(c2ccc(-n3cc4cccc(C(N)=O)c4n3)cc2F)CCCNC1` [Example 51], 100 to 500 nM. Same read-out and setting: as for `CC1(c2ccc(-n3nc4c(C(N)=O)cccc4c3F)cc2)CCCNC1` (stereo not shown) [Example 52], the figure is 500 to 1000 nM; as for `C[C@]1(c2ccc(-n3nc4c(C(N)=O)cccc4c3F)cc2)CCCNC1` [Example 53], 500 to 1000 nM. Still for that read-out and setting: as for `C[C@@]1(c2ccc(-n3nc4c(C(N)=O)cccc4c3F)cc2)CCCNC1` [Example 54], the figure is 500 to 1000 nM; as for `CC1(c2ccc(-n3cc4cccc(C(N)=O)c4n3)c(F)c2)CCCNC1` (stereo not shown) [Example 55], 100 to 500 nM; as for `C[C@]1(c2ccc(-n3cc4cccc(C(N)=O)c4n3)c(F)c2)CCCNC1` [Example 56], 100 to 500 nM. Take `C[C@@]1(c2ccc(-n3cc4cccc(C(N)=O)c4n3)c(F)c2)CCCNC1` [Example 57]: the IC50 was in the range of 100 to 500 nM.

Tested on in another data set: not listed separately
Put plainly: Pharmacokinetic study in rats. The note with it: SD rats, PO 10 mg/kg. On the procedure:
SD rats were used as test animals, and the drug concentrations in plasma at different times after intravenous and intragastric administration of the compounds of examples were determined by LC/MS/MS method(s) to study the pharmacokinetics of the compound in the present disclosure in rats
Healthy adult male SD (Sprague-Dawley) rats, 3 animals per test compound, 6-9 weeks old, weighing 250±50 g, were purchased from Shanghai SLAC Laboratory Animal Co., Ltd.
The appropriate amount of sample was weighed out, 0.5% Methocel/2% tween 80 was added to the final volume, and 2 mg/mL was prepared for intragastric administration.
Each 3 male SD rats of each test compound were taken by intragastric administration at a dosage of 10 mg/kg after fasting overnight.
Blood samples of each animal were collected at different time points 0.083-24 h from jugular vein puncture after administration, K2-EDTA anticoagulation, centrifugation, and blood plasma were collected, frozen at −70° C. until LC/MS/MS analysis.
For `[2H]C1(c2ccc(-n3cc4cccc(C(N)=O)c4n3)cc2)CCCNC1` (single isomer, unassigned) [Example 3, (R or S)-2-(4-(piperidin-3-D-3-yl)phenyl)-2H-indazole-7-carboxamide], the F stood at 62.3% and the “exposure amount (AUC) compared with Niraparib, in words” value is on record as “significantly higher”.

Staying with this data set, now noted: SD rats, table head: Dose PO (10 mg/kg).
In the case of `[2H]C1(c2ccc(-n3cc4cccc(C(N)=O)c4n3)cc2)CCCNC1` (single isomer, unassigned) [Example 3, (R or S)-2-(4-(piperidin-3-D-3-yl)phenyl)-2H-indazole-7-carboxamide], the CL stood at 24.9 mL/min/kg and the Vdss turned out to be 6.04 L/kg.

The same data set, now with this note: male, Sprague-Dawley, rat, in vivo, po, 10 mg/kg.
As for `NC(=O)c1cccc2cn(-c3ccc([C@]4(F)CCCNC4)cc3)nc12` (single isomer, unassigned) [Example 24, (R or S)-2-(4-(3-fluoropiperidin-3-yl)phenyl)-2H-indazole-7-carboxamide], the F was 61.3%; the MRT (as a rule, a mean duration of stay, worked out from the concentration-time curve) is on record as 4.63 h; the T1/2 came to 2.64 h.

Staying with this data set, now noted: male, Sprague-Dawley, rat, plasma, po, 10 mg/kg, AUC, SD rats, PO 10 mg/kg.
On to `[2H]C1(c2ccc(-n3cc4cccc(C(N)=O)c4n3)cc2)CCCNC1` (single isomer, unassigned) [Example 3, (R or S)-2-(4-(piperidin-3-D-3-yl)phenyl)-2H-indazole-7-carboxamide], for which the AUC – broadly, the area under the concentration-time curve, a measure of exposure – was determined as 5160 ng·h/mL.

Staying with this data set, now noted: male, Sprague-Dawley, rat, plasma, po, 10 mg/kg, Cmax, SD rats, PO 10 mg/kg.
For `[2H]C1(c2ccc(-n3cc4cccc(C(N)=O)c4n3)cc2)CCCNC1` (single isomer, unassigned) [Example 3, (R or S)-2-(4-(piperidin-3-D-3-yl)phenyl)-2H-indazole-7-carboxamide], the Cmax (commonly the peak of the concentration-time curve) turned out to be 549 ng/mL.

The same data set, now with this note: male, Sprague-Dawley, rat, plasma, po, 10 mg/kg, MRT, SD rats, PO 10 mg/kg.
Turning to `[2H]C1(c2ccc(-n3cc4cccc(C(N)=O)c4n3)cc2)CCCNC1` (single isomer, unassigned) [Example 3, (R or S)-2-(4-(piperidin-3-D-3-yl)phenyl)-2H-indazole-7-carboxamide], the MRT turned out to be 7.95 h.

Staying with this data set, now noted: male, Sprague-Dawley, rat, plasma, po, 10 mg/kg, T1/2, SD rats, PO 10 mg/kg.
Turning to `[2H]C1(c2ccc(-n3cc4cccc(C(N)=O)c4n3)cc2)CCCNC1` (single isomer, unassigned) [Example 3, (R or S)-2-(4-(piperidin-3-D-3-yl)phenyl)-2H-indazole-7-carboxamide], the half-life (in general, how long it takes for the measured level to halve) is 3.18 h.
